Test results as given in PubChem BioAssay AID1259407 (Chemical Carcinogenesis Research Information System (CCRIS), 2018).
The source made the active and inactive calls. No rule for the calls is given here.

Tested on: CCRIS mutagenicity, Ames/micronucleus/aberration tests
Assay: CCRIS mutagenicity studies
[1] = Test System: AMES SALMONELLA TYPHIMURIUM, Strain/Indicator: TA98, Metabolic Activation: NONE, Method: STANDARD PLATE
[2] = Test System: AMES SALMONELLA TYPHIMURIUM, Strain/Indicator: TA98, Metabolic Activation: RAT, LIVER, S-9, AROCLOR 1254, Method: STANDARD PLATE
[3] = Test System: AMES SALMONELLA TYPHIMURIUM, Strain/Indicator: TA100, Metabolic Activation: NONE, Method: STANDARD PLATE
[4] = Test System: AMES SALMONELLA TYPHIMURIUM, Strain/Indicator: TA100, Metabolic Activation: RAT, LIVER, S-9, AROCLOR 1254, Method: STANDARD PLATE
[5] = Test System: AMES SALMONELLA TYPHIMURIUM, Strain/Indicator: TA100, Metabolic Activation: NONE, Method: PREINCUBATION
[6] = Test System: AMES SALMONELLA TYPHIMURIUM, Strain/Indicator: TA1535, Metabolic Activation: NONE, Method: STANDARD PLATE
[7] = Test System: AMES SALMONELLA TYPHIMURIUM, Strain/Indicator: TA1537, Metabolic Activation: NONE, Method: STANDARD PLATE

For `IC(I)I`, the mutagenic call (End Point: IN VITRO CHROMOSOMAL ABERRATIONS, Test System: SYRIAN HAMSTER EMBRYO (SHE) CELLS, Metabolic Activation: NONE) was “inactive; negative; toxicity at 160 and 240 um”, the mutagenic call (End Point: IN VITRO CHROMOSOMAL ABERRATIONS, Test System: SYRIAN HAMSTER EMBRYO (SHE) CELLS, Metabolic Activation: RAT, LIVER, S-9) was “inactive; negative” and the mutagenic call (End Point: In vitro chromosomal aberrations, Test System: D824 human dental pulp cells, Metabolic Activation: None) was “active; positive (structural changes and ploidy)”.
`BrC(Br)C(Br)Br` was tested, and the mutagenic call (Test System: AMES SALMONELLA TYPHIMURIUM, Strain/Indicator: TA97, Metabolic Activation: NONE, Method: STANDARD PLATE) was “active; positive”, the mutagenic call (Test System: AMES SALMONELLA TYPHIMURIUM, Strain/Indicator: TA97, Metabolic Activation: RAT, LIVER, S-9, AROCLOR 1254, Method: STANDARD PLATE) was “active; positive” and the mutagenic call [1] was “inactive; negative”. For the same molecule, the mutagenic call [2] was “active; positive”, the mutagenic call [3] was “inactive; negative” and the mutagenic call [4] was “active; positive”. The mutagenic call (Test System: AMES SALMONELLA TYPHIMURIUM, Strain/Indicator: TA104, Metabolic Activation: NONE, Method: STANDARD PLATE) was “inactive; negative”, the mutagenic call (Test System: AMES SALMONELLA TYPHIMURIUM, Strain/Indicator: TA104, Metabolic Activation: RAT, LIVER, S-9, AROCLOR 1254, Method: STANDARD PLATE) was “active; positive” and the mutagenic call (Test System: AMES SALMONELLA TYPHIMURIUM, Strain/Indicator: TA1530, Metabolic Activation: NONE, Method: PREINCUBATION) was “active; positive”.
With `N[C@@H](CCC(=O)NNc1ccccc1)C(=O)O` the mutagenic call [3] was “inactive; negative”, the mutagenic call (Test System: AMES SALMONELLA TYPHIMURIUM, Strain/Indicator: TA100, Metabolic Activation: RAT KIDNEY, MICROSOMES, Method: STANDARD PLATE) was “active; positive” and the mutagenic call (Test System: AMES SALMONELLA TYPHIMURIUM, Strain/Indicator: TA100, Metabolic Activation: RAT LIVER, MICROSOMES, Method: STANDARD PLATE) was “inactive; negative”.
In the case of `CC(=O)c1ccc2c(c1)C(=O)C1(CC1)O2`, the mutagenic call (Test System: AMES SALMONELLA TYPHIMURIUM, Strain/Indicator: TA98, Metabolic Activation: NONE) is reported as “inactive; negative”, the mutagenic call (Test System: AMES SALMONELLA TYPHIMURIUM, Strain/Indicator: TA98, Metabolic Activation: S-9) is reported as “inactive; negative” and the mutagenic call (Test System: AMES SALMONELLA TYPHIMURIUM, Strain/Indicator: TA100, Metabolic Activation: NONE) is reported as “inactive; negative”. For the same molecule, the mutagenic call (Test System: AMES SALMONELLA TYPHIMURIUM, Strain/Indicator: TA100, Metabolic Activation: S-9) was “inactive; negative”, the mutagenic call (Test System: AMES SALMONELLA TYPHIMURIUM, Strain/Indicator: TA1535, Metabolic Activation: NONE) was “inactive; negative” and the mutagenic call (Test System: AMES SALMONELLA TYPHIMURIUM, Strain/Indicator: TA1535, Metabolic Activation: S-9) was “inactive; negative”. For the same molecule, the mutagenic call (Test System: AMES SALMONELLA TYPHIMURIUM, Strain/Indicator: TA1537, Metabolic Activation: NONE) was “inactive; negative”, the mutagenic call (Test System: AMES SALMONELLA TYPHIMURIUM, Strain/Indicator: TA1537, Metabolic Activation: S-9) was “inactive; negative” and the mutagenic call (Test System: E. COLI, Strain/Indicator: WP2 (HCR), Metabolic Activation: NONE) was “inactive; negative”. For the same molecule, the mutagenic call (Test System: E. COLI, Strain/Indicator: WP2 (HCR), Metabolic Activation: S-9) was “inactive; negative”.
`CC(=O)[C@]1(C)O[C@@]12C=Cc1ccccc1C2=O` was tested, and the mutagenic call [5] was “inactive; negative”.
For `NC(=O)CNC(=O)N(CCCl)N=O`, the mutagenic call [6] was “active; positive”.
For `CCOC(=O)[C@H]1O[C@@H]1C(=O)N[C@@H](CC(C)C)C(=O)NCCC(C)C`, the mutagenic call (Test System: AMES SALMONELLA TYPHIMURIUM, Strain/Indicator: TA98, Metabolic Activation: NONE, Method: PREINCUBATION) was “inactive; negative”, the mutagenic call [1] was “inactive; negative” and the mutagenic call (Test System: AMES SALMONELLA TYPHIMURIUM, Strain/Indicator: TA98, Metabolic Activation: RAT, LIVER, S-9, Method: PREINCUBATION) was “inactive; negative”. For the same molecule, the mutagenic call (Test System: AMES SALMONELLA TYPHIMURIUM, Strain/Indicator: TA98, Metabolic Activation: RAT, LIVER, S-9, Method: STANDARD PLATE) was “inactive; negative”, the mutagenic call [5] was “inactive; negative” and the mutagenic call [3] was “inactive; negative”. For the same molecule, the mutagenic call (Test System: AMES SALMONELLA TYPHIMURIUM, Strain/Indicator: TA100, Metabolic Activation: RAT, LIVER, S-9, Method: PREINCUBATION) was “inactive; negative”, the mutagenic call (Test System: AMES SALMONELLA TYPHIMURIUM, Strain/Indicator: TA100, Metabolic Activation: RAT, LIVER, S-9, Method: STANDARD PLATE) was “inactive; negative” and the mutagenic call [6] was “inactive; negative”. The mutagenic call (Test System: AMES SALMONELLA TYPHIMURIUM, Strain/Indicator: TA1535, Metabolic Activation: RAT, LIVER, S-9, Method: STANDARD PLATE) was “inactive; negative”, the mutagenic call [7] was “inactive; negative” and the mutagenic call (Test System: AMES SALMONELLA TYPHIMURIUM, Strain/Indicator: TA1537, Metabolic Activation: RAT, LIVER, S-9, Method: STANDARD PLATE) was “inactive; negative”. The mutagenic call (Test System: E. COLI, Strain/Indicator: WP2 UVRA, Metabolic Activation: NONE, Method: STANDARD PLATE) was “inactive; negative” and the mutagenic call (Test System: E. COLI, Strain/Indicator: WP2 UVRA, Metabolic Activation: RAT, LIVER, S-9, Method: STANDARD PLATE) was “inactive; negative”.
In the case of `[CH3][Sn]([CH3])([CH3])[CH3]`, the mutagenic call (Test System: AMES SALMONELLA TYPHIMURIUM, Strain/Indicator: TA98, Metabolic Activation: NONE, Method: SUSPENSION/PLATE) is reported as “inactive; negative” and the mutagenic call (Test System: AMES SALMONELLA TYPHIMURIUM, Strain/Indicator: TA100, Metabolic Activation: NONE, Method: SUSPENSION/PLATE) is reported as “inactive; negative”.
With `CC(=O)OC[C@]12C[C@H](OC(=O)CC(C)C)C(C)=C[C@H]1O[C@@H]1[C@H](O)[C@@H](OC(C)=O)[C@@]2(C)[C@]12CO2` the mutagenic call (Test System: AMES SALMONELLA TYPHIMURIUM, Strain/Indicator: TA98, Metabolic Activation: RAT LIVER S-9, DELOR 103, Method: STANDARD PLATE) was “inactive; negative”, the mutagenic call (Test System: AMES SALMONELLA TYPHIMURIUM, Strain/Indicator: TA98, Metabolic Activation: RAT, LIVER, MICROSOMES, PHENOBARBITAL, Method: STANDARD PLATE) was “inactive; negative” and the mutagenic call [5] was “inactive; negative”. For the same molecule, the mutagenic call (Test System: AMES SALMONELLA TYPHIMURIUM, Strain/Indicator: TA100, Metabolic Activation: RAT LIVER S-9, DELOR 103, Method: STANDARD PLATE) was “inactive; negative”, the mutagenic call (Test System: AMES SALMONELLA TYPHIMURIUM, Strain/Indicator: TA100, Metabolic Activation: RAT, LIVER, MICROSOMES, PHENOBARBITAL, Method: STANDARD PLATE) was “inactive; negative” and the mutagenic call (Test System: AMES SALMONELLA TYPHIMURIUM, Strain/Indicator: TA100, Metabolic Activation: RAT, LIVER, S-9, PHENOBARBITAL, Method: PREINCUBATION) was “inactive; negative”. The mutagenic call (Test System: CHINESE HAMSTER, Strain/Indicator: V-79/6-THIOGUANINE, Metabolic Activation: NONE, Method: STANDARD PLATE) was “active; positive” and the mutagenic call (Test System: CHINESE HAMSTER, Strain/Indicator: V-79/6-THIOGUANINE, Metabolic Activation: S-9, Method: STANDARD PLATE) was “active; positive”.
With `NN(CCO)c1ccn([C@@H]2O[C@H](CO)[C@@H](O)[C@H]2O)c(=O)n1` the mutagenic call (Test System: CHINESE HAMSTER V-79, Strain/Indicator: V-79/6-THIOGUANINE, Metabolic Activation: NONE, Method: REPLATING) was “inactive; negative”.
For `CCOC(=O)C(C)=O`, the mutagenic call [1] was “inactive; negative”, the mutagenic call [2] was “inactive; negative” and the mutagenic call [3] was “inactive; negative”. The mutagenic call [4] was “inactive; negative”, the mutagenic call [6] was “inactive; negative” and the mutagenic call (Test System: AMES SALMONELLA TYPHIMURIUM, Strain/Indicator: TA1535, Metabolic Activation: RAT, LIVER, S-9, AROCLOR 1254, Method: STANDARD PLATE) was “inactive; negative”. For the same molecule, the mutagenic call [7] was “inactive; negative” and the mutagenic call (Test System: AMES SALMONELLA TYPHIMURIUM, Strain/Indicator: TA1537, Metabolic Activation: RAT, LIVER, S-9, AROCLOR 1254, Method: STANDARD PLATE) was “inactive; negative”.
`CC(=O)Nc1ccc(Cc2ccc(N)c(Cl)c2)cc1Cl` was tested, and the mutagenic call [5] was “inactive; negative” and the mutagenic call (Test System: AMES SALMONELLA TYPHIMURIUM, Strain/Indicator: TA100, Metabolic Activation: RAT, LIVER, S-9, AROCLOR 1254 (50, 100 OR 200 µL), Method: PREINCUBATION) was “active; positive”.
